Key:
[1] = Inhibition of norepinephrine-stimulated melatonin production assessed per 10^5 cells in rat pinealocytes at 10 uM by radioimmunoassay; type: functional
[2] = Inhibition of norepinephrine-stimulated melatonin production assessed per 10^5 cells in rat pinealocytes at 50 uM by radioimmunoassay; type: functional
[3] = target: Serotonin N-acetyltransferase (Rattus norvegicus) (UniProt Q64666); assay: Inhibition of norepinephrine-stimulated AANAT activity assessed per 10^5 cells in rat pinealocytes at 10 uM; type: cell-based
Serotonin N-acetyltransferase (Rattus norvegicus), sequence (Q64666 whole entry): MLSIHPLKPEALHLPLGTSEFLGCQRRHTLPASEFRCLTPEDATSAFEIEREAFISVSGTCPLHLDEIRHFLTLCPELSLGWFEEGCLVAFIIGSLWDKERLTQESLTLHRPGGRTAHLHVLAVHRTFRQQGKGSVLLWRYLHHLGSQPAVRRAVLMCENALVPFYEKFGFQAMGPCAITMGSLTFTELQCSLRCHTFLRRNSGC

[4] = target: Serotonin N-acetyltransferase (Rattus norvegicus) (UniProt Q64666); assay: Inhibition of norepinephrine-stimulated AANAT activity assessed per 10^5 cells in rat pinealocytes at 50 uM; type: cell-based
[5] = target: Serotonin N-acetyltransferase (Rattus norvegicus) (UniProt Q64666); assay: Activity of AANAT assessed as conversion of bis-pivaloyloxymethylene-tryptamine-phosphopantetheine to tryptamine phosphopantetheine in rat pinealocytes after 60 mins; type: cell-based
[6] = target: Serotonin N-acetyltransferase (Rattus norvegicus) (UniProt Q64666); assay: Activity of AANAT assessed as conversion of bis-pivaloyloxymethylene-tryptamine-phosphopantetheine to tryptamine phosphopantetheine in rat pinealocytes at […]; type: cell-based; settings: TDE = time-dependent effect

Which Inhibition [1] does the source give for `CC(C)(C)C(=O)OCOP(=O)(OCOC(=O)C(C)(C)C)OCC(C)(C)[C@@H](O)C(=O)NCCC(=O)NCCSCC(=O)NCCc1c[nH]c2ccccc12` here?
Its Inhibition is 9 pmol.

What about the Inhibition [2] of the same compound?
Its Inhibition is 5.7 pmol.

What about the Activity [3] of the same compound?
The Activity was 2.2 nmol/h.

What about the Activity [4] of the same compound?
Its Activity is 1.6 nmol/h.

What about the Activity [5] of the same compound?
The Activity was 40%.

And the Activity [6]?
Its Activity is “tde”.

From ChEMBL document CHEMBL1142910, “Enzymatic and cellular study of a serotonin N-acetyltransferase phosphopantetheine-based prodrug” (2007)
